Measurements: patent publication US20230271969A1, “NITROGEN-CONTAINING FUSED RING DERIVATIVE INHIBITOR, PREPARATION METHOD THEREFOR AND USE THEREOF” (Shanghai Hansoh Biomedical Co., Ltd., priority 2020, published 2023)

How the values were obtained:
[1] = biological target: T1, NK3 receptors (Homo sapiens, UniProt P29371); assay: Calcium ion fluidity (FLIPR) in cells with stable expression of NK3 receptors; format: cell-based; settings: calcium signal, antagonist mode, read-out: NK3R IC50 (nM) FLIPR
T1 construct: expressed in transfected cells
T1 sequence (P29371 1-465): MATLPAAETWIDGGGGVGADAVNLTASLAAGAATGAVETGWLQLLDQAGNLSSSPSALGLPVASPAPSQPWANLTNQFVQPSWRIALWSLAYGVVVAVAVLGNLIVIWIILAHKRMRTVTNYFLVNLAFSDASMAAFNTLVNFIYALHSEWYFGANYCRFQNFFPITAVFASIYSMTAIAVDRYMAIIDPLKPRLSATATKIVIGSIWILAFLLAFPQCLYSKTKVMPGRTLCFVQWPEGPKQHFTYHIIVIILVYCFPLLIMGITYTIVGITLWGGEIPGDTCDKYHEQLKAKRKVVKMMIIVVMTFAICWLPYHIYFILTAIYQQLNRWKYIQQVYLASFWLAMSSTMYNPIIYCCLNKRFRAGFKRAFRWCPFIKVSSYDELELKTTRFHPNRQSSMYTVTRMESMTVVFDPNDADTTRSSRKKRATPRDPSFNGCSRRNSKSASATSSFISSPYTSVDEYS
Description: Determination of the Effect of the Compounds of the Present Invention on Calcium Ion Fluidity in Cells with Stable Expression of NK3 Receptors
Experimental objective: The objective of this test example was to determine the inhibitory effect of the compounds on NK3 receptors.
Experimental Methods: • 1. […] Probenecid and BSA were freshly added on the day of the experiment. The buffers for the experiments included dye buffer, compound dilution buffer and the like. • 2. […] The culture medium was discarded, and 20 μL of dye was added. The cells were incubated at 37° C. in the dark for 60 min, and then the calcium signal was read. • 4. The antagonist was prepared before the experiments. […] The plate was transferred to FLIPR, and 6× concentration of the agonist compound was added at 5 μL/well. The values were read and the data were saved by using FLIPR. The total assay volume was 30 μL, comprising 20 μL/well of dye buffer, 5 μL/well of 5× concentration of the experimental compound, and 5 μL/well of 6× concentration of the agonist compound.
The calcium signal value was read by FLIPR. The output of each sampling time point in the experiment was calculated as the ratio of the signals at wavelengths of 340/510 nm to 380/510 nm. The maximum minus minimum value was calculated from the ratio signal curve. The IC50 value of the compound was calculated by fitting the data of inhibition rate percentage and ten concentrations to the parametric nonlinear logistic equation by using GraphPad prism.

[2] = biological target: T1, NK3 receptors; assay: Antagonism of IP1 in HEK293 cells with stable expression of NK3; format: cell-based; settings: agonist Senktide 3 nM, read-out: NK3R IC50 (nM) IP1
Protocol: Determination of the Effect of the Compounds of the Present Invention on IP1 in HEK293 Cells with Stable Expression of NK3
The objective of this test example was to determine the antagonism effect of the compounds on the activity of HEK293-NK3 cells.
3. Experimental Methods: • 1. […] HEK293-NK3 cell line was cultured in complete medium and seeded in the coated dishes at 37° C., 5% CO2 until 70%˜90% confluence. • 3. […] The cells were digested and resuspended in 1× Stimulation Buffer (IP-ONE Gq Kit), seeded into the 384-well cell culture plate (which contained the compound to be tested) at 5,000 cells/well/5 μL by using Multidrop Combi. The culture plate was centrifuged at 300 rpm at room temperature for 60 seconds, and then incubated at 37° C., 5% CO2 for 15 minutes. • 5. The cell culture plate was taken out from the CO2 incubator. […] The culture plate was centrifuged at 300 rpm at room temperature for 60 seconds, and then incubated at 37° C., 5% CO2 for 2 hours. • 6. The cell culture plate was taken out from the CO2 incubator. 5 μL of IP1 d2 reagent and then 5 μL of IP1 Tb Cryptate Antibody reagent were added by using Multidrop Combi. The culture plate was centrifuged at room temperature at 300 rpm for 60 seconds, and left to stand at room temperature for 1 hour. • 7. The plate was read by using EnVision Multilabel Reader, and data were collected at the same time.
The fluorescence signal ratio (Ratio) was read and collected by EnVision Multilabel Reader. According to the readings of the Low control (DMSO control) and High control (p)ositive compound) experimental groups, the antagonism percentage data were calculated as {% antagonism=(Ratio sample−Ratio low control)/(Ratio high control−Ratio low control)×100}.

Compound	IC50 [1] [nM]	IC50 [2] [nM]
C[C@@H]1c2nnc(-c3nc4ccccc4s3)n2CCN1C(=O)c1ccc(-c2cccs2)cc1 [Example 5, (R)-(3-(Benzo[d]thiazol-2-yl)-8-methyl-5,6-dihydro-[1,2,4]triazolo[4,3-a]pyrazin-7 (8H)-yl)(4-(thien-2-yl)phenyl)methanone]	159	–
C[C@@H]1c2nnc(-c3nc4cc(F)ccc4s3)n2CCN1C(=O)c1ccc(Cl)cc1 [Example 10, (R)-(4-Chlorophenyl)(3-(5-fluorobenzo[d]thiazol-2-yl)-8-methyl-5,6-dihydro-[1,2,4]triazolo[4,3-a]pyrazin-7(8H)-yl)methanone]	51.4	172
[2H]c1cc(C(=O)N2CCn3c(-c4nc5cc(Cl)c(F)cc5s4)nnc3[C@H]2C)ccc1F [Example 105, (R)-(3-(5-Chloro-6-fluorobenzo[d]thiazol-2-yl)-8-methyl-5,6-dihydro-[1,2,4]triazolo[4,3-a]pyrazin-7(8H)-yl)(4-fluorophenyl-3-d)methanone]	268	108
C[C@@H]1c2nnc(-c3nc4sccc4s3)n2CCN1C(=O)c1ccc(Cl)cc1 [Example 41, (R)-(4-Chlorophenyl)(8-methyl-3-(thieno[2,3-d]thiazol-2-yl)-5,6-dihydro-[1,2,4]triazolo[4,3-a]pyrazin-7(8H)-yl)methanone]	224	–
C[C@@H]1c2nnc(-c3nc4ccccc4s3)n2CCN1C(=O)c1ccc(F)cc1 [Example 1, (R)-(3-(Benzo[d]thiazol-2-yl)-8-methyl-5,6-dihydro-[1,2,4]triazolo[4,3-a]pyrazin-7 (8H)-yl)(4-fluorophenyl)methanone]	76.2	–
C[C@@H]1c2nnc(-c3nc(Cl)ns3)n2CCN1C(=O)c1cc(F)c(F)c(F)c1 [Example 58, (R)-(3-(3-Chloro-1,2,4-thiadiazol-5-yl)-8-methyl-5,6-dihydro-[1,2,4]triazolo[4,3-a]pyrazin-7(8H)-yl)(3,4,5-trifluorophenyl)methanone]	183	84.1
C[C@@H]1c2nnc(-c3nc4ccc(F)cc4s3)n2CCN1C(=O)c1ccc(Cl)cc1 [Example 13, (R)-(4-Chlorophenyl)(3-(6-fluorobenzo[d]thiazol-2-yl)-8-methyl-5,6-dihydro-[1,2,4]triazolo[4,3-a]pyrazin-7(8H)-yl)methanone]	71.6	131
C[C@@H]1c2nnc(-c3nc4ccc(C#N)cc4s3)n2CCN1C(=O)c1ccc(F)cc1 [Example 21, (R)-2-(7-(4-Fluorobenzoyl)-8-methyl-5,6,7,8-tetrahydro-[1,2,4]triazolo[4,3-a]pyrazin-3-yl)benzo[d]thiazol-6-carbonitrile]	123	28.2
C[C@@H]1c2nnc(-c3nc4sccc4s3)n2CCN1C(=O)c1ccc(F)cc1 [Example 40, (R)-(4-Fluorophenyl)(8-methyl-3-(thieno[2,3-d]thiazol-2-yl)-5,6-dihydro-[1,2,4]triazolo[4,3-a]pyrazin-7(8H)-yl)methanone]	298	–
[2H]c1c([2H])c(C(=O)N2CCn3c(-c4nc(Cl)ns4)nnc3[C@H]2C)c([2H])c([2H])c1F [Example 55, (R)-(3-(3-Chloro-1,2,4-thiadiazol-5-yl)-8-methyl-5,6-dihydro-[1,2,4]triazolo[4,3-a]pyrazin-7(8H)-yl)(4-fluorophenyl-2,3,5,6-d4)methanone]	219	88.3
C[C@@H]1c2nnc(-c3nc(Br)ns3)n2CCN1C(=O)c1ccc(F)cc1 [Example 98]	78.4	100
C[C@@H]1c2nnc(-c3nc4ccccc4s3)n2CCN1C(=O)c1ccc(Cl)c(Cl)c1 [Example 4, (R)-(3-(Benzo[d]thiazol-2-yl)-8-methyl-5,6-dihydro-[1,2,4]triazolo[4,3-a]pyrazin-7 (8H)-yl)(3,4-dichlorophenyl)methanone]	61.3	94.3
C[C@@H]1c2nnc(-c3cc4ccccn4n3)n2CCN1C(=O)c1ccc(Cl)c(Cl)c1 [Example 46, (R)-(3,4-Dichlorophenyl)(8-methyl-3-(pyrazolo[1,5-a]pyridin-2-yl)-5,6-dihydro-[1,2,4]triazolo[4,3-a]pyrazin-7(8H)-yl)methanone]	107	–
C[C@@H]1c2nnc(-c3nc4ccsc4s3)n2CCN1C(=O)c1ccc(Cl)c(Cl)c1 [Example 44, (R)-(3,4-Dichlorophenyl)(8-methyl-3-(thieno[3,2-d]thiazol-2-yl)-5,6-dihydro-[1,2,4]triazolo[4,3-a]pyrazin-7(8H)-yl)methanone]	255	–
[2H]C([2H])([2H])N(c1nsc(-c2nnc3n2CCN(C(=O)c2ccc(F)cc2)[C@@H]3C)n1)C([2H])([2H])[2H] [Example 106, (R)-(3-(3-(Bis(methyl-d3)amino)-1,2,4-thiadiazol-5-yl)-8-methyl-5,6-dihydro-[1,2,4]triazolo[4,3-a]pyrazin-7(8H)-yl)(4-fluorophenyl)methanone]	–	129
[2H]c1cc(C(=O)N2CCn3c(-c4nc(Cl)cs4)nnc3[C@H]2C)ccc1F [Example 121, (R)-(3-(4-Chlorothiazol-2-yl)-8-methyl-5,6-dihydro-[1,2,4]triazolo[4,3-a]pyrazin-7 (8H)-yl)(4-fluorophenyl-3-d)methanone]	–	132
[2H]c1c([2H])c(C(=O)N2CCn3c(-c4nc(C([2H])([2H])[2H])ns4)nnc3[C@H]2C)c([2H])c([2H])c1F [Example 50, (R)-(4-Fluorophenyl-2,3,5,6-d4)(8-methyl-3-(3-(methyl-d3)-1,2,4-thiadiazol-5-yl)-5,6-dihydro-[1,2,4]triazolo[4,3-a]pyrazin-7(8H)-yl)methanone]	147	–
C[C@@H]1c2nnc(-c3nc4cc(F)cc(F)c4s3)n2CCN1C(=O)c1ccc(F)cc1 [Example 18, (R)-(3-(5,7-Difluorobenzo[d]thiazol-2-yl)-8-methyl-5,6-dihydro-[1,2,4]triazolo[4,3-a]pyrazin-7(8H)-yl)(4-fluorophenyl)methanone]	130	–
[2H]c1cc(C(=O)N2CCn3c(-c4nc(N5CC(F)C5)cs4)nnc3[C@H]2C)ccc1F [Example 117, (R)-(3-(4-(3-Fluoroazetidin-1-yl)thiazol-2-yl)-8-methyl-5,6-dihydro-[1,2,4]triazolo[4,3-a]pyrazin-7(8H)-yl)(4-fluorophenyl-3-d)methanone]	–	116
C[C@@H]1c2nnc(-c3nc4ccc(Cl)nc4s3)n2CCN1C(=O)c1ccc(F)cc1 [Example 38]	247	–
C[C@@H]1c2nnc(-c3nc(N(C)C4CC4)ns3)n2CCN1C(=O)c1ccc(F)cc1 [Example 115, (R)-(3-(3-(Cyclopropyl(methyl)amino)-1,2,4-thiadiazol-5-yl)-8-methyl-5,6-dihydro-[1,2,4]triazolo[4,3-a]pyrazin-7(8H)-yl)(4-fluorophenyl)methanone]	–	76.6
C[C@@H]1c2nnc(-c3nc4c(F)cc(F)cc4s3)n2CCN1C(=O)c1ccc(Cl)cc1 [Example 16, (R)-(4-Chlorophenyl)(3-(4,6-difluorobenzo[d]thiazol-2-yl)-8-methyl-5,6-dihydro-[1,2,4]triazolo[4,3-a]pyrazin-7(8H)-yl)methanone]	–	146
